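Growth conditions: 96-well plates. Treatment: test compound, 48 hours, 5 concentrations. Analysis: linear interpolation between bracketing concentrations; unreached endpoints set to highest concentration. TGI denotes the concentration required for complete inhibition of growth.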
Assays:
Test in all cases: NCI-60 cell line screen, 48 h
UO-31 renal = system: UO-31 renal
MDA-N = system: MDA-N
SF-268 CNS = system: SF-268 CNS
SR leukemia = system: SR leukemia
KM12 colon = system: KM12 colon
A498 renal = system: A498 renal
MOLT-4 leukemia = system: MOLT-4 leukemia
CCRF-CEM leukemia = system: CCRF-CEM leukemia
SW-620 colon = system: SW-620 colon
BT-549 breast = system: BT-549 breast

Row | SMILES | TGI (UO-31 renal) | TGI (MDA-N) | TGI (SF-268 CNS) | TGI (SR leukemia) | TGI (KM12 colon) | TGI (A498 renal) | TGI (MOLT-4 leukemia) | TGI (CCRF-CEM leukemia) | TGI (SW-620 colon) | TGI (BT-549 breast)
1 | Cc1c(-c2ccccc2)[nH]n(C2=NCCN2)c1=O | > 100 µM | > 100 µM | > 100 µM | > 100 µM | > 100 µM | > 100 µM | > 100 µM | > 100 µM | > 100 µM | > 100 µM
2 | c1ccc([P+](CCCCCCCC[P+](c2ccccc2)(c2ccccc2)c2ccccc2)(c2ccccc2)c2ccccc2)cc1 | > 100 µM | > 100 µM | > 100 µM | 51.6 µM | 49.5 µM | > 86.4 µM | > 86 µM | > 100 µM | > 100 µM | > 100 µM
3 | CC1(C)N=C2C(=O)c3c([nH]c4ccccc34)[C@]3(C)CCC1CC23 (stereo not given in full) | > 6.25 µM | > 6.25 µM | > 6.25 µM | > 6.25 µM | > 6.25 µM | > 6.25 µM | > 6.25 µM | > 6.25 µM | > 6.25 µM | > 6.25 µM
4 | CN(C)CCCNC(=O)c1c(O)c2ccccc2n(C)c1=O | > 100 µM | > 100 µM | > 100 µM | > 100 µM | > 100 µM | > 100 µM | > 100 µM | > 100 µM | > 100 µM | > 100 µM
5 | COc1cc(C(O)c2ccc3c(c2)OCO3)cc(OC)c1OC (stereo not given) | > 100 µM | > 100 µM | > 100 µM | > 100 µM | > 100 µM | > 100 µM | > 100 µM | > 100 µM | > 100 µM | > 100 µM
6 | COC(=O)C1(O)C(c2ccccc2)=NC2(C)CCCC21 (stereo not given) | > 100 µM | > 100 µM | > 100 µM | > 100 µM | > 100 µM | > 100 µM | > 100 µM | > 100 µM | > 100 µM | > 100 µM
7 | CC(=O)n1nc(-c2ccccc2)n(/N=C/c2ccc([N+](=O)[O-])o2)c1=O | 4.17 µM | 3.92 µM | 14.1 µM | 14.1 µM | 36.4 µM | 45 µM | 18.6 µM | 6.55 µM | 22.9 µM | 17.6 µM
8 | COc1cccc2c1OCC1Cc3ccccc3OC21 (stereo not given) | > 100 µM | 64.8 µM | > 100 µM | > 100 µM | > 100 µM | > 100 µM | > 100 µM | > 100 µM | > 100 µM | 52.2 µM
9 | CCOC(=O)C1CCC(=O)N1C(=O)c1ccccc1Cl (stereo not given) | > 100 µM | > 100 µM | > 100 µM | > 100 µM | > 100 µM | > 100 µM | > 100 µM | > 100 µM | > 100 µM | > 100 µM
10 | CN(C)c1ccc(Cc2cc3c(O)ccc(O)c3cc(Cc3ccc(N(C)C)cc3)c2=O)cc1 | 27.7 µM | 41 µM | > 77.5 µM | > 26.5 µM | 40 µM | > 75.5 µM | 8.81 µM | 7.36 µM | 41.9 µM | 32.2 µM
11 | O=C(/C=C/c1ccc2c(c1)OCO2)Cc1nc2ccccc2[nH]c1=O | 50.9 µM | > 100 µM | 55.3 µM | > 100 µM | > 100 µM | 65.7 µM | > 100 µM | > 100 µM | > 100 µM | > 100 µM
12 | COc1ccc(Oc2cnn(C(Br)(Br)C(C)=O)c(=O)c2Br)cc1 | 26.8 µM | 22.9 µM | 29 µM | 5.32 µM | 31.4 µM | 59.9 µM | 3.56 µM | 4.57 µM | 27.8 µM | 32.1 µM
13 | COC1C(O)C(O[C@H]2CC[C@@]3(C)C(CC[C@@H]4[C@@H]3CC[C@]3(C)[C@@H](C(C)OC5OC(CO)C(O)C(O)C5O)CC[C@]43O)C2)OC(C)C1OC1OC(CO)C(O)C(O)C1O (stereo not given in full) | > 100 µM | > 100 µM | > 100 µM | > 100 µM | > 100 µM | > 100 µM | > 100 µM | > 100 µM | > 100 µM | > 100 µM
14 | O=C(CC(=O)Nc1ccccc1)NNC(c1cc(N=Nc2ccc(Br)cc2)ccc1O)P(O)O (stereo not given) | > 10 µM | > 10 µM | > 10 µM | > 10 µM | > 10 µM | 8.72 µM | 4.15 µM | 8.25 µM | > 10 µM | > 10 µM
15 | Clc1nncc2sc(-c3ccccc3)nc12 | 55 µM | 51.4 µM | 49 µM | > 100 µM | > 72.8 µM | > 100 µM | > 97.2 µM | > 94.4 µM | 61.3 µM | > 53.2 µM
16 | CCOC(=O)c1sc2ncnc(N)c2c1C | > 100 µM | > 100 µM | > 100 µM | > 100 µM | > 100 µM | > 100 µM | > 100 µM | > 100 µM | > 100 µM | > 100 µM
17 | O=C(OCC1OC(n2nc(Cn3nnc(-c4cccnc4)n3)n(-c3cccc4ccccc34)c2=S)C(OC(=O)c2ccccc2)C1OC(=O)c1ccccc1)c1ccccc1 (stereo not given) | > 100 µM | > 100 µM | > 100 µM | > 100 µM | > 100 µM | > 100 µM | > 100 µM | > 100 µM | > 100 µM | > 100 µM
18 | COc1ccc(OC)c2sc(N3C(=O)/C(=C/c4cccc([N+](=O)[O-])c4)N=C3c3ccccc3)nc12 | > 100 µM | > 100 µM | > 100 µM | 70.3 µM | > 100 µM | > 100 µM | 47.4 µM | 78.2 µM | 95.2 µM | > 100 µM
19 | C[C@]12CC[C@@H]3c4ccc(O)cc4CC[C@H]3[C@@H]1C/C(=C\c1ccc(C#N)cc1)C2=O | > 100 µM | > 100 µM | > 100 µM | > 100 µM | > 100 µM | > 100 µM | > 100 µM | > 100 µM | > 100 µM | > 100 µM
20 | O=C(O)CN(CC(=O)O)C(C(=O)O)c1ccccc1 (stereo not given) | > 100 µM | > 100 µM | > 100 µM | > 100 µM | > 100 µM | > 100 µM | > 100 µM | > 100 µM | > 100 µM | > 100 µM
21 | CCOC(=O)c1ccc(Nc2nc3ccc(C(F)(F)F)cc3nc2C(=O)OCC)cc1 | > 100 µM | > 100 µM | > 100 µM | > 100 µM | > 100 µM | > 100 µM | > 100 µM | > 100 µM | > 100 µM | > 100 µM
22 | O=[N+]([O-])/C(Cl)=C(\NCCN/C(C(Cl)=C(Cl)Cl)=C(/Cl)[N+](=O)[O-])C(Cl)=C(Cl)Cl | > 100 µM | > 100 µM | > 100 µM | 50.4 µM | > 100 µM | > 100 µM | 80.7 µM | > 100 µM | > 100 µM | > 100 µM
23 | Cc1cc(C)nc(NS(=O)(=O)c2ccc(NC(=O)c3cccc4c(NNc5ccc(S(=O)(=O)N=C(N)N)cc5)c5ccccc5nc34)cc2)n1 | > 50 µM | > 50 µM | > 50 µM | > 50 µM | > 50 µM | > 50 µM | > 50 µM | > 50 µM | > 50 µM | > 50 µM
24 | CCN(CC)CCO/N=C1\CC[C@H]2[C@@H]3CCc4cc(OC)ccc4[C@H]3CC[C@]12C | 7.77 µM | 3.66 µM | 7.05 µM | 4.31 µM | 5.86 µM | 9.28 µM | 3.72 µM | 4.86 µM | 3.47 µM | 19 µM
25 | C[C@H]1[C@H](C)CC[C@]2(C(=O)OC3OC(CO)C(O)C(O)C3O)CC[C@]3(C)C(=CC[C@@H]4[C@@]5(C)C[C@H]6OC(=O)c7cc(O)c(O)c(O)c7-c7c(cc(O)c(O)c7O)C(=O)O[C@@H]6C(CO)(CO)[C@@H]5CC[C@]43C)[C@H]12 (stereo not given in full) | > 100 µM | 72.7 µM | > 100 µM | > 96.3 µM | > 100 µM | > 100 µM | > 74.4 µM | > 92.3 µM | > 100 µM | > 100 µM
26 | O=S1SC(=S)C2C=CC=CC21 (stereo not given) | > 100 µM | > 100 µM | > 100 µM | > 100 µM | > 100 µM | > 100 µM | > 100 µM | 39 µM | > 100 µM | > 100 µM
27 | C[n+]1c(/C=C/c2ccc(O)c3ncccc23)[se]c2ccccc21 | 18.3 µM | 25.4 µM | 27.6 µM | > 21.9 µM | 25.2 µM | 30.5 µM | > 22.7 µM | 4.22 µM | > 100 µM | 35 µM
28 | CC(C)[Si](OC/C(=C/COC(C)(C)C)[C@H]1CC=C(C(=O)c2ccccc2N2CN(C)C(=O)N(C)C2)C1)(C(C)C)C(C)C | 23.1 µM | 4.62 µM | 17.3 µM | 5.95 µM | 44.4 µM | 34.5 µM | 1.67 µM | > 100 µM | 6.61 µM | 26.5 µM
29 | COC(=O)N1N=C(c2ccccc2)C1c1ccccc1 (stereo not given) | 52.9 µM | > 100 µM | > 100 µM | > 100 µM | > 100 µM | > 100 µM | > 100 µM | > 100 µM | > 100 µM | > 100 µM
30 | CC(C)C1=C(O)C2=C(C(=O)C1=O)C1(C)CCCC(C)(C)C1C(O)C2OC=O (stereo not given) | 18.8 µM | 28.1 µM | 24.4 µM | 6.52 µM | 24.7 µM | 35.1 µM | 6.91 µM | 8.47 µM | 13.1 µM | 21.5 µM

Reference: PubChem BioAssay (NCI)
